In US6667303B1, “Aryl substituted 1,4-diazepanes and method of use thereof” (Wyeth, priority 2001, dated 2003):

Biological target: T1, human 5-hydroxytryptamine2C (h5HT2C) receptor (Homo sapiens, UniProt P28335)
T1 construct: expressed in transfected cells; host or cells: CHO (Chinese Hamster Ovary) cells; membrane preparation
T1 sequence (P28335 33-458): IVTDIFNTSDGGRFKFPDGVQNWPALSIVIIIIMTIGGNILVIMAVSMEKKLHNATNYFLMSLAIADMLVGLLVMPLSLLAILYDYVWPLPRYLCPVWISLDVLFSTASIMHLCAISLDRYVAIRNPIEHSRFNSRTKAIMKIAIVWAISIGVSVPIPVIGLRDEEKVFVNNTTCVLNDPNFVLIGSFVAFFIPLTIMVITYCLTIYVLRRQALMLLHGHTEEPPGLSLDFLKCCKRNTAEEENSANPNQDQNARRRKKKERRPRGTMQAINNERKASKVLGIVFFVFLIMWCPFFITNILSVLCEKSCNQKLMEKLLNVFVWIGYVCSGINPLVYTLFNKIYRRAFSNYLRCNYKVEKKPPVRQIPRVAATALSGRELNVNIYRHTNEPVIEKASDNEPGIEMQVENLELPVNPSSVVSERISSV
Assay: 5HT2C receptor binding assay ([125I] DOI displacement)
Conditions: not given
Description: To determine for compounds of Formula (I) the affinity for the 5HT2C receptor, the following 5HT2C receptor binding assay was performed. A CHO (Chinese Hamster Ovary) cell line transfected with the cDNA expressing the human 5-hydroxytryptamine2C (h5HT2C) receptor was maintained in DMEM (Dulbecco's Modified Eagle Media) supplied with fetal calf serum, glutamine, and the markers: guaninephosphoribosyl transferase (GTP) and hypoxanthinethymidine (HT). The cells were allowed to grow to confluence in large culture dishes with intermediate changes of media and splitting. Upon reaching confluence, the cells were harvested by scraping. The harvested cells were suspended in half volume of fresh physiological phosphate buffered saline (PBS) solution and centrifuged at low speed (900×g). This operation was repeated once more. The collected cells were then homogenized with a polytron at setting #7 for 15 sec in ten volumes of 50 mM Tris.HCl, pH 7.4 and 0.5 mM EDTA. The homogenate was centrifuged at 900×g for 15 min to remove nuclear particles and other cell debris. The pellet was discarded and the supernatant fluid recentrifuged at 40,000×g for 30 min. The resulting pellet was resuspended in a small volume of Tris.HCl buffer and the tissue protein content was determined in aliquots of 10-25 microliter (μl) volumes. Bovine Serum Albumin (BSA) was used as the standard in the protein determination by the method of Lowry et al., (J. Biol. Chem., 193:265 (1951)). The volume of the suspended cell membranes was adjusted with 50 mM Tris.HCl buffer containing: 0.1% ascorbic acid, 10 mM pargyline and 4 mM CaCl2 to give a tissue protein concentration of 1-2 mg per ml of suspension. The preparation membrane suspension (many times concentrated) was aliquoted in 1 ml volumes and stored at −70° C. until used in subsequent binding experiments.
Binding experiments were performed in a 96 well microtiter plate format, in a total volume of 200 μl. To each well was added: 60 μl of incubation buffer made in 50 mM Tris.HCl buffer, pH 7.4 and containing 4 mM CaCl2; 20 μl of […] DOI [1-(4-iodo-2,5-dimethoxyphenyl)-2-aminopropane] (S.A., 2200 Ci/mmol, NEN Life Science).
DOI. The reaction was initiated by the final addition of 100.0 μl of tissue suspension containing 50 μg of receptor protein. Nonspecific binding was measured in the presence of 1 μM unlabeled DOI added in 20.0 μl volume. Test compounds are added in […]. The mixture was incubated at room temperature for 60 min. The incubation was stopped by rapid filtration. The bound ligand-receptor complex was filtered off on a 96 well unifilter with a Packard® Filtermate 196 Harvester. The bound complex caught on the filter disk was dried in a vacuum oven heated to 60° C. and the radioactivity measured by liquid scintillation with 40 μl Microscint-20 scintillant in a Packard TopCount® equipped with six (6) photomultiplier detectors.
Description of this method can be found in Sanders-Bush, E. et al., Putative selective 5-HT2C antagonists block serotonin 5-HT1C receptors in the choroid plexus, J. Pharmacol. Exper. Ther., 247: 169-173 (1988), and Akiyoshi, J., et al., Effects of antidepressants on intracellular calcium mobilization in CHO cells transfected with the human 5-HT2C receptors, Biol. Psychiatry, 39:1000-1008 (1996).
Specific binding is defined as the total radioactivity bound less the amount bound in the presence of 1 μM unlabeled DOI. Binding in the presence of varying concentrations of test drugs was expressed as percent of specific binding in the absence of drug. […] Alternatively, a linear regression line of decline of data points was plotted, from which the IC50 value was read off the curve and the Ki value determined by solving the following equation: [formula]

| Compound | Ki [µM] |
| --- | --- |
| O=C1c2cccc3c(N4CCCN(CC5CCC5)CC4)ccc(c23)N1CC1CCC1 [Example 32, 1-(cyclobutylmethyl)-6-[4-(cyclobutylmethyl)-1,4-diazepan-1-yl]benzo[cd]indol-2(1H)-one] | 0.256 |
| CCCCCN1CCCN(c2ccc3c4c(cccc24)C(=O)N3CCCC(F)(F)F)CC1 [Example 80, 6-(4-pentyl-1,4-diazepan-1-yl)-1-(4,4,4-trifluorobutyl)benzo[cd]indol-2(1H)-one] | 0.19 |
| COc1cc(CC(C)N)c(OC)cc1I (stereo not shown) [DOI, 1-(4-iodo-2,5-dimethoxyphenyl)-2-aminopropane, reference compound] | 0.0195 |
| C=CCN1CCCN(c2ccc3c4c(cccc24)C(=O)N3CC2CCC2)CC1 [Example 22, 6-(4-allyl-1,4-diazepan-1-yl)-1-(cyclobutylmethyl)benzo[cd]indol-2(1H)-one] | 0.241 |
| CC(C)CN1CCCN(c2ccc3c4c(cccc24)C(=O)N3CC2CCC2)CC1 [Example 24, 1-(cyclobutylmethyl)-6-(4-isobutyl-1,4-diazepan-1-yl)benzo[cd]indol-2(1H)-one] | 0.26 |

Same assay, conditions: membranes of CHO cells expressing h5HT2C; radioligand [125I] DOI; room temperature, 60 min; read-out: 5HT2C Binding Affinity Ki

| Compound | Ki [µM] |
| --- | --- |
| COc1ccc(CN2C(=O)c3cccc4c(N5CCCN(CC6CCC6)CC5)ccc2c34)cc1 [Example 13, 6-[4-(cyclobutylmethyl)-1,4-diazepan-1-yl]-1-(4-methoxybenzyl)benzo[cd]indol-2(1H)-one] | 0.257 |
| COc1ccc(CN2C(=O)c3cccc4c(N5CCCN(CC(C)(C)C)CC5)ccc2c34)cc1 [Example 5, 1-(4-methoxybenzyl)-6-(4-neopentyl-1,4-diazepan-1-yl)benzo[cd]indol-2(1H)-one] | 0.132 |
| O=C1c2cccc3c(N4CCCN(CCc5ccccc5)CC4)ccc(c23)N1CC1CCC1 [Example 28, 1-(cyclobutylmethyl)-6-[4-(2-phenylethyl)-1,4-diazepan-1-yl]benzo[cd]indol-2(1H)-one] | 0.178 |
| O=C1c2cccc3c(N4CCCN(CCc5ccccc5)CC4)ccc(c23)N1CCCC(F)(F)F [Example 85, 6-[4-(2-phenylethyl)-1,4-diazepan-1-yl]-1-(4,4,4-trifluorobutyl)benzo[cd]indo-2(1H)-one] | 0.112 |
| CCCCCN1CCCN(c2ccc3c4c(cccc24)C(=O)N3CC)CC1 [Example 44, 1-ethyl-6-(4-pentyl-1,4-diazepan-1-yl)benzo[cd]indol-2(1H)-one] | 0.247 |
| COc1ccc(CN2C(=O)c3cccc4c(N5CCCN(CCCc6ccccc6)CC5)ccc2c34)cc1 [Example 11] | 0.165 |
| CCCN1CCCN(c2ccc3c4c(cccc24)C(=O)N3Cc2ccc(OC)cc2)CC1 [Example 88, 1-(4-methoxybenzyl)-6-(4-propyl-1,4-diazepan-1-yl)benzo[cd]indol-2(1H)-one] | 0.243 |

Biological target: T2, human serotonin 5HT2C receptor (Homo sapiens, UniProt P28335)
T2 construct: expressed in transfected cells; host or cells: CHO (Chinese Hamster Ovary) cells; membrane preparation
T2 sequence (P28335 33-458): T1 sequence (P28335 33-458)
Assay: saturation binding with increasing concentrations of [125I] DOI
Conditions: not given
Description: To determine for compounds of Formula (I) the affinity for the 5HT2C receptor, the following 5HT2C receptor binding assay was performed. A CHO (Chinese Hamster Ovary) cell line transfected with the cDNA expressing the human 5-hydroxytryptamine2C (h5HT2C) receptor was maintained in DMEM (Dulbecco's Modified Eagle Media) supplied with fetal calf serum, glutamine, and the markers: guaninephosphoribosyl transferase (GTP) and hypoxanthinethymidine (HT). The cells were allowed to grow to confluence in large culture dishes with intermediate changes of media and splitting. Upon reaching confluence, the cells were harvested by scraping. The harvested cells were suspended in half volume of fresh physiological phosphate buffered saline (PBS) solution and centrifuged at low speed (900×g). This operation was repeated once more. […] The resulting pellet was resuspended in a small volume of Tris.HCl buffer and the tissue protein content was determined in aliquots of 10-25 microliter (μl) volumes. […]
The dissociation constant, KD of [^125I] […] Nonspecific binding was measured in the presence of 1 μM unlabeled DOI added in 20.0 μl volume. […] The bound complex caught on the filter disk was dried in a vacuum oven heated to 60° C. and the radioactivity measured by liquid scintillation with 40 μl Microscint-20 scintillant in a Packard TopCount® equipped with six (6) photomultiplier detectors.

| Compound | Kd [µM] |
| --- | --- |
| COc1cc(CC(C)N)c(OC)cc1I (stereo not shown) [[^125I] DOI, 1-(4-iodo-2,5-dimethoxyphenyl)-2-aminopropane] | 0.0004 |
